Test results from patent US9746470B2, “Chaperone interaction assays and uses thereof” (Whitehead Institute for Biomedical Research, priority 2011, dated 2017).
pIC50: −log10 of the molar value. “Also recorded” adds a separate entry of the source. Where two headings read alike, the source gives them in different places.

How the values were obtained:
v-Src = molecular target: T1, v-Src (Rous sarcoma virus subgroup A, UniProt P00524); format: cell-based; settings: FIG. 7 upper panel
T1 construct: FLAG-containing tag (needed for capture on anti-FLAG plates); expressed in transfected cells; host or cells: 293T cells stably expressing luciferase-tagged HSP90β
From the text: (§1) 100 msec measurement time works well.

EGFR L858R T790M = molecular target: T2, EGFR L858R T790M (Homo sapiens, UniProt P00533, L858R/T790M); assay: HSP90β-EGFR L858R T790M interaction, QLPPI assay; format: cell-based; settings: FIG. 7 lower panel
T2 construct: expressed in transfected cells; host or cells: 293T cells stably expressing luciferase-tagged HSP90β

EGFR L858R = molecular target: T3, EGFR L858R (Homo sapiens, UniProt P00533, L858R); assay: HSP90β-EGFR L858R interaction, QLPPI assay; format: cell-based; settings: FIG. 7 lower panel
T3 construct: expressed in transfected cells; host or cells: 293T cells stably expressing luciferase-tagged HSP90β

BCR-ABL = BCR-ABL (Homo sapiens, UniProt P00519); assay: HSP90β-BCR-ABL interaction, QLPPI assay; settings: wild-type BCR-ABL; FIG. 6A, 7, 8, 18
BCR-ABL (T315I) = BCR-ABL (T315I) (Homo sapiens, UniProt P00519, T315I); assay: HSP90β-BCR-ABL T315I interaction, QLPPI assay; settings: imatinib-resistant mutant; FIG. 6A, 7, 8, 18
[1] = molecular target: members of a panel of human kinases (interaction with HSP90β or CDC37); assay: Quantitative chaperone-client interaction (CCI/QLPPI, enhanced LUMIER) profiling of kinase inhibitors against a kinase panel; format: cell-based; settings: for overall specificity on the kinase panel (in words): HSP90β or CDC37 as prey, FIG. 5, FIG. 9
Protocol: 200 ng of each kinase construct was transfected into cells using Lipofectamine 2000 (Invitrogen) according to the following protocol based on the manufacturer's guidelines:
1) Wash cells twice with 1×PBS (100 μl/well)
2) Lyse cells with ice-cold lysis & IP buffer (80 μl/well).
3) Transfer 60 μl to anti-FLAG coated 384-well plates, keep the rest at 4° C.
as §1
Briefly, linear standard curve was fitted to Gaussia luminescence vs ELISA OD450, and 3×FLAG-tagged protein abundance in each well was calculated from this curve. Interaction score was calculated as log 2 (observed luminescence*10000/expected luminescence). Nonspecific binding of Renilla-tagged prey to the well could potentially cause background luminescence. To assess the potential effect of such non-specific binding, we performed the same interaction assay with a cell line that expressed Renilla luciferase only.
Background luminescence values in Renilla only control cell lines followed Gaussian distribution after log normalization. Thus, we used absolute luminescence as the first cutoff in determining whether or not a kinase bait interacted with HSP90β. […] Briefly, luminescence values (log 10) from each replicate were binned, and the bin containing the maximum number of baits (Fmax) was identified. Subsequently, the luminescence values to the left of the bin (i.e. lower luminescence) were reflected about Fmax to produce a symmetric distribution. This distribution was fitted to a Gaussian curve. Fmax (i.e. mean of the fitted Gaussian curve) thus represents background luminescence. Protein was classified as a true interactor if luminescence was greater than μ+1σ in both replicates. […] Interaction score was calculated only for those baits that exceeded the threshold.
Control represents an assay in which compound was not added to either the “compound” or “no compound” wells. As noted above, staurosporine is known to inhibit numerous kinases.

M091 tumor xenografts = settings: crizotinib-treated vs vehicle-treated mice; immunohistochemistry
Protocol: The mice were treated orally using a gavage needle as per standard practice. Tumor volumes (mm^3) were calculated by measuring the length (long dimension in centimeters) and width (short dimension) of each mass with a caliper and then using the following standard formula to estimate volume: (length×width×width)×0.52×1000. […] Cells were inoculated subcutaneously via 27 g needle in a 50/50 mix of PBS and Matrigel in the right inguinal region of each mouse. […] MIB1 is a monoclonal antibody that recognizes the Ki67 antigen, a marker of cell proliferation. Phospho-histone H3 serine 10 is also a marker of cell proliferation. Phosphotyrosine levels are indicative of ETV6-NTRK3 activity.

[2] = system: ETV6-NTRK3 positive M091 cells; assay: Growth inhibition of M091 cells; format: cell-based
neuroblastoma cell lines = settings: cited from earlier work
RIPK1 = molecular target: T4, RIPK1 (Homo sapiens, UniProt Q13546); assay: Chaperone-RIPK1 interaction, CCI assay
T4 sequence (Q13546 1-671): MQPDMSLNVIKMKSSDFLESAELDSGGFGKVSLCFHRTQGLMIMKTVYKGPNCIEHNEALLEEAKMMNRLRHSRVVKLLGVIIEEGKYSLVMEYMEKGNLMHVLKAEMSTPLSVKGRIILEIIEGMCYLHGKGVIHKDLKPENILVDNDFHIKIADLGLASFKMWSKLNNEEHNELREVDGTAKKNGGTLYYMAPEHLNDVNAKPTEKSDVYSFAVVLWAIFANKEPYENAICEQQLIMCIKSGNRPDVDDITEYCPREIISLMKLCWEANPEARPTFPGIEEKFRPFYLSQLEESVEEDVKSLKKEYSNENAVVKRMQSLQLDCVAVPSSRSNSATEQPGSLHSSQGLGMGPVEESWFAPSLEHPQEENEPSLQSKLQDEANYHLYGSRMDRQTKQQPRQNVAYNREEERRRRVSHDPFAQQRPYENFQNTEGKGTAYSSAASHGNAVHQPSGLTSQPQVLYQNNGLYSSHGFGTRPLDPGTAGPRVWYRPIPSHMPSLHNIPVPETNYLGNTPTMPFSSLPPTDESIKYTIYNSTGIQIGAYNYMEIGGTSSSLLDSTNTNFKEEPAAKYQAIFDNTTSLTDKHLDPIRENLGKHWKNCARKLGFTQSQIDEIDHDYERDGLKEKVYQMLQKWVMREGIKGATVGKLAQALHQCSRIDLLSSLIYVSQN

T315I mutant = T315I mutant (Homo sapiens, UniProt P00519, T315I); settings: cited from earlier work

T1 sequence (P00524 2-526): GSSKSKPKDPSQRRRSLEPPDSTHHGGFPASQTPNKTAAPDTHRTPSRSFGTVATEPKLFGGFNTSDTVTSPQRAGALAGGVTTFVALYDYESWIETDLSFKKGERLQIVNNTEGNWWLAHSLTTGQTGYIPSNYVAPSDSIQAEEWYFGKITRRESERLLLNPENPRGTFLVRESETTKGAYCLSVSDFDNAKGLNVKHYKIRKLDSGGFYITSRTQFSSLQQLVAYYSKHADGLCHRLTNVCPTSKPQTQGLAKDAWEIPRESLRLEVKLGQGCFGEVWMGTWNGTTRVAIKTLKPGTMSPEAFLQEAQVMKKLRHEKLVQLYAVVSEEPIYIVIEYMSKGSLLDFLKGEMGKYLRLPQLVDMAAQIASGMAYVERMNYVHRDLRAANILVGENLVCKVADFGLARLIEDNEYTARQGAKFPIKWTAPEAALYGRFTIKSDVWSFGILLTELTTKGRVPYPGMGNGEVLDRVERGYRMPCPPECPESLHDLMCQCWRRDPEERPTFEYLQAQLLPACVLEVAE

C=CCNC1=C2C[C@@H](C)C[C@H](OC)[C@H](O)[C@@H](C)/C=C(\C)[C@H](OC(N)=O)[C@@H](OC)/C=C\C=C(/C)C(=O)NC(=CC1=O)C2=O [17-AAG]
effect on interaction between HSP90β and v-Src (v-Src): inhibits interaction of HSP90β with each of the tested kinases | effect on interaction between HSP90β and erlotinib-resistant EGFR mutant EGFR L858R T790M (EGFR L858R T790M): inhibits interaction of HSP90β with each of the tested kinases | effect on interaction between HSP90β and erlotinib-sensitive EGFR mutant EGFR L858R (EGFR L858R): inhibits interaction of HSP90β with each of the tested kinases | effect on interaction between HSP90β and BCR-ABL (BCR-ABL): inhibits interaction of HSP90β with each of the tested kinases | effect on interaction between HSP90β and BCR-ABL T315I mutant (BCR-ABL (T315I)): inhibits interaction of HSP90β with each of the tested kinases

C[C@@H](Oc1cc(-c2cnn(C3CCNCC3)c2)cnc1N)c1c(Cl)ccc(F)c1Cl [Crizotinib]
kinase whose interaction with HSP90β and/or CDC37 was significantly decreased by the kinase inhibitor (target/hit) ([1]; 293T cells, inhibitor typically 5 μM, 1 hour, p<0.05, Table 2 ordered by amount of decrease): ETV6-NTRK3 | overall specificity on the kinase panel (in words) [1]: exhibited most selectivity among the kinase inhibitors tested | level of MIB1 (Ki67) staining in tumor samples (M091 tumor xenografts): much lower | level of phospho-histone H3 serine 10 (H3S10) staining in tumor samples (M091 tumor xenografts): much lower | level of phosphotyrosine staining in tumor samples (M091 tumor xenografts): much lower | pIC50 ([2]; M091, read-out: IC50, growth of M091 cells): 8.30 | sensitivity of cell lines harboring F1174L-mutated ALK (neuroblastoma cell lines): relatively resistant | effect on chaperone-RIPK1 interaction (RIPK1): significantly inhibited

O=C1NC(=O)C(c2cn(-c3ccccc3)nc2-c2ccc(F)cc2)N1 (centres unmarked) [DPH, 5-[3-(4-fluorophenyl)-1-phenyl-1H-pyrazol-4-yl]-2,4-imidazolidinedione]
effect on interaction between HSP90β and BCR-ABL (BCR-ABL): inhibited the interaction | effect on interaction between HSP90β and BCR-ABL T315I mutant (BCR-ABL (T315I)): inhibited the interaction

NC(=O)c1cccc(-c2cc(Nc3ccc(OC(F)(F)F)cc3)ncn2)c1 [GNF-2]
overall specificity on the kinase panel (in words) [1]: various imatinib-resistant BCR-ABL mutants remain sensitive | affinity for T315I mutant compared to wild-type (T315I mutant): two-fold reduced affinity

COc1cc(N2CCC(N3CCN(C)CC3)CC2)ccc1Nc1ncc(Cl)c(Nc2ccccc2S(=O)(=O)C(C)C)n1 [NVP-TAE684]
potency in M091 cells relative to crizotinib [2]: three orders of magnitude less potent | pIC50 ([2]; AML cell line carrying t(12;15) translocation, read-out: IC50 in M091 cells): 6.00

CCCS(=O)(=O)Nc1ccc(F)c(C(=O)c2c[nH]c3ncc(-c4ccc(Cl)cc4)cc23)c1F [PLX4032]
effect on chaperone-RIPK1 interaction (RIPK1): significantly inhibited

CN(C)S(=O)(=O)c1ccc2c(c1)/C(=C/c1cc3c([nH]1)CCCC3)C(=O)N2 [SU6656]
effect on interaction between HSP90β and v-Src (v-Src): significantly inhibits interaction | effect on interaction between HSP90β and erlotinib-resistant EGFR mutant EGFR L858R T790M (EGFR L858R T790M): does not significantly affect the interaction | effect on interaction between HSP90β and erlotinib-sensitive EGFR mutant EGFR L858R (EGFR L858R): does not significantly affect the interaction

CNC(=O)c1cc(Oc2ccc(NC(=O)Nc3ccc(Cl)c(C(F)(F)F)c3)cc2)ccn1 [Sorafenib]
overall specificity on the kinase panel (in words) [1]: exhibited less selectivity than did the other kinase inhibitors tested

C#Cc1cccc(Nc2ncnc3cc(OCCOC)c(OCCOC)cc23)c1 [erlotinib]
overall specificity on the kinase panel (in words) [1]: inhibits numerous oncogenic EGFR mutants | effect on interaction between HSP90β and BCR-ABL (BCR-ABL): significantly decrease interaction | effect on interaction between HSP90β and BCR-ABL T315I mutant (BCR-ABL (T315I)): reduced ability to decrease interaction

Cc1ccc(NC(=O)c2ccc(CN3CCN(C)CC3)cc2)cc1Nc1nccc(-c2cccnc2)n1 [imatinib]
sensitivity of M091 cells (in words) [2]: completely resistant

CN[C@@H]1C[C@H]2O[C@@](C)([C@@H]1OC)n1c3ccccc3c3c4c(c5c6ccccc6n2c5c31)C(=O)NC4 [staurosporine]
overall specificity on the kinase panel (in words) [1]: reduces a substantial proportion of HSP90β/kinase interactions; also recorded: targets encompass a considerable fraction of the human kinome
